Test results as given in ChEMBL document CHEMBL3431459, “Roche carnitine palmitoyltransferase modulator screening data (supplementary data associated with the publication CHEMBL2216752)”.
≈ marks a conversion by molar mass, not a printed value.

Experiments:
[1] = molecular target: T1, Carnitine O-palmitoyltransferase 2, mitochondrial (Rattus norvegicus, UniProt P18886); test: (§1) SUPPLEMENTARY: Inhibition of Carnitine palmitoyltransferase 2
T1 sequence (P18886 whole entry): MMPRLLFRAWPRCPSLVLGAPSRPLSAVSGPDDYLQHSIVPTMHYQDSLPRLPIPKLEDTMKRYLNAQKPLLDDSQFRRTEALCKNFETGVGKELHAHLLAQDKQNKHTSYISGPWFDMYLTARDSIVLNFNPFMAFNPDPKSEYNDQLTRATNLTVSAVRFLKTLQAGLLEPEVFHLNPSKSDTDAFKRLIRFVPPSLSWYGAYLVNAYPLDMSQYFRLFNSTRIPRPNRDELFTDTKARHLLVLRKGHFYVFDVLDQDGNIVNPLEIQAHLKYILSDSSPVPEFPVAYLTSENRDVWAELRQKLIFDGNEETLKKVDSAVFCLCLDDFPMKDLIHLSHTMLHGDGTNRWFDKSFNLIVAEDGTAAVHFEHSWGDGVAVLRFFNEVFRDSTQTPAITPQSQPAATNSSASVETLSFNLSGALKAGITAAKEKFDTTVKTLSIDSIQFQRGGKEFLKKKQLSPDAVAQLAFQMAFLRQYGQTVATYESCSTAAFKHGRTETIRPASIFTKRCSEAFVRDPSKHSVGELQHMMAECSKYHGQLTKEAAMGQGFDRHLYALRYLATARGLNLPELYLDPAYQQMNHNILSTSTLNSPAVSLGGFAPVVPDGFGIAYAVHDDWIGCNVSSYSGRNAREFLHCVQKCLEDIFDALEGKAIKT

[2] = molecular target: T2, Carnitine O-palmitoyltransferase 2, mitochondrial (Homo sapiens, UniProt P23786); test: as §1
T2 sequence (P23786 whole entry): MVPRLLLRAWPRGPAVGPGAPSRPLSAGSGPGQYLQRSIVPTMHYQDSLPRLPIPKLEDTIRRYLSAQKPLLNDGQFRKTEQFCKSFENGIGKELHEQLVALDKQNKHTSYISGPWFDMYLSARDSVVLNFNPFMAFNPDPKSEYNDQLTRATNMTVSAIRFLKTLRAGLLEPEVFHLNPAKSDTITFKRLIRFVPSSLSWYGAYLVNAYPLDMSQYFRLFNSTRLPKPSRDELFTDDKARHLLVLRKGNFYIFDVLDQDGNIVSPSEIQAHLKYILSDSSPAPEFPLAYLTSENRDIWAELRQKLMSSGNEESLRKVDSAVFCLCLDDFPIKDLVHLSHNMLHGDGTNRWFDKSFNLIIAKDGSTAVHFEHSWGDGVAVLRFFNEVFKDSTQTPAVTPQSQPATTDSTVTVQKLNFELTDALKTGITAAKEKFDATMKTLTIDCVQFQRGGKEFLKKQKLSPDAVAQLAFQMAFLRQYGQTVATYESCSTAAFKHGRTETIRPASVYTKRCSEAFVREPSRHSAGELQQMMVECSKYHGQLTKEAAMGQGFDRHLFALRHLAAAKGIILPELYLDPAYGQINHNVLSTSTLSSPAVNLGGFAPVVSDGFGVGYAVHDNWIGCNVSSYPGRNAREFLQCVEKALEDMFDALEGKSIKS

[3] = molecular target: T3, Carnitine O-palmitoyltransferase 1, muscle isoform (Homo sapiens, UniProt Q92523); test: SUPPLEMENTARY: Inhibition of Carnitine palmitoyltransferase 1, muscle isoform; parameters: species or system Muscle tissue
T3 sequence (Q92523 whole entry): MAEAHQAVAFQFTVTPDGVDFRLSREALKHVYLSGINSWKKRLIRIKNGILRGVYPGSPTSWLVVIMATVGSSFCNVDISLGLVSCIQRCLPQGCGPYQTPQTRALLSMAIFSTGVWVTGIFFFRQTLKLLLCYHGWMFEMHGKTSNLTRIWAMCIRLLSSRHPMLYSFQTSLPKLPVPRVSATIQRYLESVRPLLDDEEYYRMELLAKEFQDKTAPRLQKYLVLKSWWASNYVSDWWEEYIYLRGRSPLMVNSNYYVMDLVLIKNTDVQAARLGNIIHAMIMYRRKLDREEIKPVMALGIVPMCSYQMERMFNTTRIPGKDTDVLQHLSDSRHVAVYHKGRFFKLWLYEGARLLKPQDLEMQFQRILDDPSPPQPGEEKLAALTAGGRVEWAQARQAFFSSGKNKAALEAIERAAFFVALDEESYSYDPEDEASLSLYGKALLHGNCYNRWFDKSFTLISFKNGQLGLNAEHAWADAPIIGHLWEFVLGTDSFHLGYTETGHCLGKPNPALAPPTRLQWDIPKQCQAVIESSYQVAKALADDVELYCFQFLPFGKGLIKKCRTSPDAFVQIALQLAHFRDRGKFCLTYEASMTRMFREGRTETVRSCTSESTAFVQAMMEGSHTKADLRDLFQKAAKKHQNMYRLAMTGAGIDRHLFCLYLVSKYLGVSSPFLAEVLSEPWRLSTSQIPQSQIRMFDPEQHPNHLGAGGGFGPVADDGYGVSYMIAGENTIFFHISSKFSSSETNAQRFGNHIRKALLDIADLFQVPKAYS

[4] = molecular target: T4, Carnitine O-palmitoyltransferase 1, liver isoform (Homo sapiens, UniProt P50416); test: (§2) SUPPLEMENTARY: Inhibition of Carnitine palmitoyltransferase 1, liver isoform
T4 sequence (P50416 whole entry): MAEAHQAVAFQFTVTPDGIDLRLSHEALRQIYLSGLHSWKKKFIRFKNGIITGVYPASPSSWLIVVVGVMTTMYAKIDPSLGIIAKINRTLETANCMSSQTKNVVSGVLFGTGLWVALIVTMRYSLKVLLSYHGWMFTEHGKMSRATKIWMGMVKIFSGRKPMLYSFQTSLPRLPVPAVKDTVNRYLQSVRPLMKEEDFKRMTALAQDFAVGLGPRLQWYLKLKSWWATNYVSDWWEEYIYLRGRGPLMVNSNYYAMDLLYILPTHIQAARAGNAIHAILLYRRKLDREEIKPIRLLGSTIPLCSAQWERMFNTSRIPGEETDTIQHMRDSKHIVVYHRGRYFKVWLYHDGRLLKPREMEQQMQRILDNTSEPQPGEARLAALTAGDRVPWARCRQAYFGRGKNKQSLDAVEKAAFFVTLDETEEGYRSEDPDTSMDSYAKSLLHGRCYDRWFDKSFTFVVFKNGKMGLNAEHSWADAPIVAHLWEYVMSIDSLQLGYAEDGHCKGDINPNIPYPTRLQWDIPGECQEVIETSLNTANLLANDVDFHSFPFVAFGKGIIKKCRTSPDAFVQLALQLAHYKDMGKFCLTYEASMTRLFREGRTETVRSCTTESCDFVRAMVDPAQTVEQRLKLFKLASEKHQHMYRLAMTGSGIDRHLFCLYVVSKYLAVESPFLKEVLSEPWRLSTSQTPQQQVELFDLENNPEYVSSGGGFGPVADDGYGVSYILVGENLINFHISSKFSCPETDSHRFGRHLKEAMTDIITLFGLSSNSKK

[5] = molecular target: T5, Carnitine O-palmitoyltransferase 1, liver isoform (Rattus norvegicus, UniProt P32198); test: as §2
T5 sequence (P32198 whole entry): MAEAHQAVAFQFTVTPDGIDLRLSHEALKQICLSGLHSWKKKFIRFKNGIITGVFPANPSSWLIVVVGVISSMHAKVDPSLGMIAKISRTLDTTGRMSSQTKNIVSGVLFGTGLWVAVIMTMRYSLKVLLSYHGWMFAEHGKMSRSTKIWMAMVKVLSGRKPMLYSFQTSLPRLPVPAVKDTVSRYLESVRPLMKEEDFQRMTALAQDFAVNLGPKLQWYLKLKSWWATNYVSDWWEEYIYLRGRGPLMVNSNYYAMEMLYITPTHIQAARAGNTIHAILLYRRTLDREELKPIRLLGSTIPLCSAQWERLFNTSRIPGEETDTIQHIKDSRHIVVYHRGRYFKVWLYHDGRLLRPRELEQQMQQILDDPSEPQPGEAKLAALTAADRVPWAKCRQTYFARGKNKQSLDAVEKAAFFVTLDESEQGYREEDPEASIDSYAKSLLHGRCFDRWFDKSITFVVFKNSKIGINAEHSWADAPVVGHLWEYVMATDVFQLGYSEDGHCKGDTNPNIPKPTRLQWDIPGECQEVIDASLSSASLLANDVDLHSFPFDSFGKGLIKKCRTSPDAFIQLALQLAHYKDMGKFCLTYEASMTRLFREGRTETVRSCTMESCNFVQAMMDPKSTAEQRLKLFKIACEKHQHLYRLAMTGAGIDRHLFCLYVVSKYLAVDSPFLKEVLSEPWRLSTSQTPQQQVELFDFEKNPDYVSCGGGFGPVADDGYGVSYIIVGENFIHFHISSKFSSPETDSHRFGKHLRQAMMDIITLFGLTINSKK

[6] = SUPPLEMENTARY: Lipophilicity (log D) Determination by high-throughput shake-flask; assay type: physicochemical; conditions: octanol/water
[7] = SUPPLEMENTARY: Lyophilisation Solubility Assay (LYSA); assay type: physicochemical; conditions: read-out: Kinetic_solubility
[8] = SUPPLEMENTARY: PAMPA permeability assay; assay type: physicochemical; conditions: read-out: Permeability

COc1ccc(Cl)cc1S(=O)(=O)c1cn(CCC(=O)O)c2ccc(C(=O)Nc3ccccc3)cc12
IC50 [1]: > 100 µM
IC50 [2]: > 100 µM
IC50 [3]: 9.02 µM
IC50 [4]: 0.0071 µM
IC50 [5]: 0.003 µM
logD [6]: 0.56
solubility kinetic [7]: 251 µg/mL (≈ 489 µM)
Papp [8]: 0.39 ×10⁻⁶ cm/s

COc1ccc(Cl)cc1S(=O)(=O)N1CCOc2c(F)cc(C(=O)Nc3ccc(C(=O)O)c(Cl)c3)cc21
IC50 [1]: 5.74 µM
IC50 [2]: 1.72 µM
IC50 [3]: 5.11 µM
IC50 [4]: 0.131 µM
IC50 [5]: 0.166 µM
logD [6]: 0.42
solubility kinetic [7]: 380 µg/mL (≈ 684 µM)
Papp [8]: 1.45 ×10⁻⁶ cm/s

Cc1cc(C)cc(S(=O)(=O)N2CC[S+]([O-])c3ccc(C(=O)Nc4ccc(C(=O)O)cc4)cc32)c1 (stereo unspecified)
IC50 [1]: > 100 µM
IC50 [2]: 1.86 µM
IC50 [3]: 37 µM
IC50 [4]: 0.0598 µM
IC50 [5]: 0.0575 µM
logD [6]: 0.1
solubility kinetic [7]: 2 µg/mL (≈ 4.01 µM)
Papp [8]: 0.49 ×10⁻⁶ cm/s

COc1ccc(Cl)cc1S(=O)(=O)c1c2cc(C(=O)Nc3ccc(C(=O)O)cc3)ccc2nn1C
IC50 [1]: > 100 µM
IC50 [2]: > 100 µM
IC50 [3]: > 100 µM
IC50 [4]: 0.0601 µM
IC50 [5]: 0.0563 µM
logD [6]: 2.41
solubility kinetic [7]: 36 µg/mL (≈ 72 µM)
Papp [8]: 2.25 ×10⁻⁶ cm/s

COc1ccc(Cl)cc1S(=O)(=O)N1COc2ccc(C(=O)Nc3ccc(C(=O)O)c(Cl)c3)cc21
IC50 [1]: 16 µM
IC50 [2]: 9.73 µM
IC50 [3]: 2.28 µM
IC50 [4]: 0.208 µM
IC50 [5]: 0.182 µM
logD [6]: 0.09
solubility kinetic [7]: > 697 µg/mL
Papp [8]: 1.66 ×10⁻⁶ cm/s

O=C([C@H]1CCCCN1C(=O)COc1ccccc1)N1CCc2ccccc2C1
IC50 [1]: 3.7 µM
IC50 [2]: 2.06 µM
IC50 [3]: > 100 µM
IC50 [4]: 0.252 µM
IC50 [5]: 0.596 µM
logD [6]: 2.97
solubility kinetic [7]: 22 µg/mL (≈ 58.1 µM)
Papp [8]: 4.18 ×10⁻⁶ cm/s

Cc1cc(-c2noc([C@H]3CCCCN3C(=O)COc3ccccc3)n2)no1
IC50 [1]: > 100 µM
IC50 [2]: > 100 µM
IC50 [3]: > 100 µM
IC50 [4]: 0.137 µM
IC50 [5]: 0.611 µM
logD [6]: 2.34
solubility kinetic [7]: 141 µg/mL (≈ 383 µM)
Papp [8]: 3.94 ×10⁻⁶ cm/s
